Key:
Format in all cases: biochemical
[1] = target: T1, human recombinant ROCK II (Homo sapiens, UniProt O75116); assay: Determination of Rho kinase inhibition (Caliper peptide phosphorylation assay); settings: 60 min at 32° C., negative decadal logarithm of the IC50
T1 construct: N-terminal His6-tagged recombinant human ROCK-II residues 11-552; His6 (N); purchased Millipore GmbH, Schwalbach, Germany
Procedure, shortened: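 His6-tagged human ROCK II (residues 11-552) phosphorylated a fluorescein-labelled peptide for 60 min at 32° C in Tris-HCl pH 7.4 with MgCl2, DTT and BSA, using 3 μM peptide and 120 μM ATP as diluted stocks. EDTA-stopped; phosphopeptide separated and detected by Caliper mobility shift; IC50 determined.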

recombinant human PKA = target: T2, recombinant human PKA (Homo sapiens, UniProt P17612); assay: Determination of Protein Kinase A inhibition (Caliper peptide phosphorylation assay); settings: recombinant human PKA versus ROCK II
T2 construct: Active recombinant human PKA (residues 1-351, N-terminal His-tag); His-tag (N); purchased Invitrogen, Karlsruhe, Germany
Procedure, shortened: (§1)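 Full-length His-tagged PKG1-beta (150 ng/ml working) or His-tagged PKA residues 1-351 (30 ng/ml working) was mixed with compound in pH 7.4 Tris/MgCl2/DTT buffer. Fluorescein-peptide substrate and ATP (3 μM and 120 μM working) were then added for 60 min at 32 °C before an EDTA stop. Phosphopeptide was separated electrophoretically on a Caliper instrument to derive IC50.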

[2] = target: T3, recombinant human PKG1-beta (Homo sapiens, UniProt Q13976); assay: Determination of Protein Kinase G inhibition (Caliper peptide phosphorylation assay); settings: recombinant human PKG1-beta versus ROCK II
T3 construct: Active recombinant human PKG1-beta (full-length, with N-terminal His-tag); His-tag (N); purchased Millipore GmbH, Schwalbach, Germany
T3 sequence (Q13976 1-686 isoform Q13976-2): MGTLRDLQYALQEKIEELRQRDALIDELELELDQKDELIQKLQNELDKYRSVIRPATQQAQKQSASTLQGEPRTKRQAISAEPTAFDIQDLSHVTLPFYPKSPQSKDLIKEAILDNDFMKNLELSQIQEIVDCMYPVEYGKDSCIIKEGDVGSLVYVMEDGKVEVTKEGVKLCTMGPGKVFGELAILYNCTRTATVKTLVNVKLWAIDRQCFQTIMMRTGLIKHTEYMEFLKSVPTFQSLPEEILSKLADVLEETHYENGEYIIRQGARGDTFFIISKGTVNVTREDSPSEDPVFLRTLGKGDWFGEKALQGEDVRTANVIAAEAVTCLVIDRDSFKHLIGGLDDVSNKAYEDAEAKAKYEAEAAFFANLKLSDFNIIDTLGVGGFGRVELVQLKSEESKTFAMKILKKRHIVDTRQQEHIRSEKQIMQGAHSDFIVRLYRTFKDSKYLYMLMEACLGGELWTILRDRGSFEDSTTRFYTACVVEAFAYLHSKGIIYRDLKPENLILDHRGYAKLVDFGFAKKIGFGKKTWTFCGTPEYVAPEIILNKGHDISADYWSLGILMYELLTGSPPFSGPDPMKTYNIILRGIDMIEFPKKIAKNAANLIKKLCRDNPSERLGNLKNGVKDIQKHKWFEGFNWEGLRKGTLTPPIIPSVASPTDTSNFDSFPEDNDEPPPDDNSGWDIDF
Procedure, shortened: as §1

T1 sequence (O75116 11-552): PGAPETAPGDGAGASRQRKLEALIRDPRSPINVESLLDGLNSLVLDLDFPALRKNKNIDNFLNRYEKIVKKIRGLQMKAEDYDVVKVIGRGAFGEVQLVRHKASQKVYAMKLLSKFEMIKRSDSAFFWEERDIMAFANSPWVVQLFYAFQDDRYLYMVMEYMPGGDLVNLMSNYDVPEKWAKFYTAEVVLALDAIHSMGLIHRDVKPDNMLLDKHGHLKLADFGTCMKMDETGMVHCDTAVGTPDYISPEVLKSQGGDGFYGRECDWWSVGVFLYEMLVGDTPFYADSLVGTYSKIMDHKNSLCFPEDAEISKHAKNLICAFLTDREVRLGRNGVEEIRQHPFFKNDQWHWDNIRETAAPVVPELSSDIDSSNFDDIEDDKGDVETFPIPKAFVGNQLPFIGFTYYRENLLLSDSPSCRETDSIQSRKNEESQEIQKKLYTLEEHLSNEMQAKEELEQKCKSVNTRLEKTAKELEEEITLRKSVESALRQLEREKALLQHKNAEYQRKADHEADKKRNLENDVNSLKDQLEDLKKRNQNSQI

Compound	IC50 [1]	Selectivity against PKA (recombinant human PKA)	Selectivity against PKG [2]	pIC50 [1]
NC(c1ccccc1)C1(c2ccccc2)CCC(Oc2cc3cc[nH]c(=O)c3cc2Cl)CC1 (single isomer, unassigned) [Example 41]	100 to 1000 nM	>10	>10	–
cis-6-[4-(1- Amino-propyl)-4- (3-bromo- phenyl)-cyclo hexyloxy]-7- chloro-2H-iso quinolin-1-one [Example 29]	–	>1000	>1000	+++++++ (8.0≦pIC50)
CC(C)C(N)[C@]1(c2ccccc2)CC[C@@H](Oc2cc3cc[nH]c(=O)c3cc2Cl)CC1 (stereo partly drawn) [Example 19, trans-6-[4-(1-Amino-2-methyl-propyl)-4-phenyl-cyclohexyloxy]-7-chloro-2H-iso quinolin-1-one]	–	>100	>100	+++++ (6.0≦pIC50<7.0)
CC(N)[C@]1(c2ccccc2)CC[C@H](Oc2cc3cc[nH]c(=O)c3cc2Cl)CC1 (stereo partly drawn) [Example 24, cis-6-[4-(1-Amino-ethyl)-4-phenyl-cyclohexyloxy]-7-chloro-2H-iso quinolin-1-one]	–	>1000	>300	+++++++ (8.0≦pIC50)
NC(c1ccc(F)cc1)C1CCC(Oc2cc3cc[nH]c(=O)c3cc2Cl)CC1 (single isomer, unassigned) [Example 37, 6-{4-[Amino-(4-fluoro-phenyl)-methyl]-cyclohexyloxy}-7-chloro-2H-isoquinolin-1-one]	≤ 10 nM	>1000	>300	–
NC(c1ccccc1)C1(c2ccccc2)CCC(Oc2cc3cc[nH]c(=O)c3cc2Cl)CC1 (single isomer, unassigned) [Example 42]	10 to 100 nM	>300	>300	–
Cc1ccc(C(N)C2CCC(Oc3cc4cc[nH]c(=O)c4cc3Cl)CC2)cc1 (single isomer, unassigned) [Example 39, 6-[4-(Amino-p-tolyl-methyl)-cyclohexyloxy]-7-chloro-2H-isoquinolin-1-one]	10 to 100 nM	>100	>100	–
CCCC(N)[C@]1(c2ccc(F)cc2)CC[C@@H](Oc2cc3cc[nH]c(=O)c3cc2Cl)CC1 (stereo partly drawn) [Example 12, trans-6-[4-(1-Amino-butyl)-4-(4-fluoro-phenyl)-cyclohexyloxy]-7-chloro-2H-isoquinolin-1-one]	–	>100	>10	+++++ (6.0≦pIC50<7.0)
CCC(N)[C@]1(c2ccccc2)CC[C@@H](Oc2cc3cc[nH]c(=O)c3cc2Cl)CC1 (stereo partly drawn) [Example 32]	–	>1000	>300	++++++ (7.0≦pIC50<8.0)
CC(N)[C@]1(c2ccc(F)cc2)CC[C@H](Oc2cc3cc[nH]c(=O)c3cc2Cl)CC1 (stereo partly drawn) [Example 15, cis-6-[4-(1-Amino-ethyl)-4-(4-fluoro-phenyl)-cyclo-hexyloxy]-7-chloro-2H-iso quinolin-1-one]	–	>1000	>300	+++++++ (8.0≦pIC50)
CCC(N)[C@]1(c2ccc(F)cc2)CC[C@H](Oc2cc3cc[nH]c(=O)c3cc2Cl)CC1 (stereo partly drawn) [Example 1, cis-6-[4-(1-Amino-propyl)-4-(4-fluoro-phenyl)-cyclohexyloxy]-7-chloro-2H-isoquinolin-1-one]	–	>1000	>1000	+++++++ (8.0≦pIC50)
CC(C)(N)[C@]1(c2ccc(F)cc2)CC[C@H](Oc2cc3cc[nH]c(=O)c3cc2Cl)CC1 [Example 77, cis-6-[4-(1-Amino-1-methyl-ethyl)-4-(4-fluoro-phenyl)-cyclohexyloxy]-7-chloro-2H-isoquinolin-1-one]	–	>1000	>300	+++++++ (8.0≦pIC50)
CC(C)(N)[C@]1(c2ccc(F)cc2)CC[C@@H](Oc2cc3cc[nH]c(=O)c3cc2Cl)CC1 [Example 22, trans-6-[4-(1-Amino-1-methyl-ethyl)-4-(4-fluoro-phenyl)-cyclohexyloxy]-7-chloro-2H-iso quinolin-1-one]	–	>300	>100	++++++ (7.0≦pIC50<8.0)
CCCC(N)[C@]1(c2ccc(F)cc2)CC[C@H](Oc2cc3cc[nH]c(=O)c3cc2Cl)CC1 (stereo partly drawn) [Example 5, cis-6-[4-(1-Amino-butyl)-4-(4-fluoro-phenyl)-cyclo-hexyloxy]-7-chloro-2H-isoquinolin-1-one]	–	>1000	>300	+++++++ (8.0≦pIC50)

Continued, values first:

IC50 [1]	Selectivity against PKA (recombinant human PKA)	Selectivity against PKG [2]	pIC50 [1]	Compound
–	>1000	>300	+++++++ (8.0≦pIC50)	CCC(N)[C@]1(c2ccc(C#N)cc2)CC[C@H](Oc2cc3cc[nH]c(=O)c3cc2Cl)CC1 (stereo partly drawn) [Example 97, cis-4-[1-(1-Amino-propyl)-4-(7-chloro-1-oxo-1,2-dihydro-isoquinolin-6-yloxy)-cyclohexyl]benzonitrile]
10 to 100 nM	>100	>10	–	CC(N)(c1ccc(F)cc1)C1CCC(Oc2cc3cc[nH]c(=O)c3cc2Cl)CC1 (single isomer, unassigned) [Example 116, 6-{4-[1-Amino-1-(4-fluoro-phenyl)-ethyl]-cyclohexyloxy}-7-chloro-2H-isoquinolin-1-one]
–	>1000	>300	+++++++ (8.0≦pIC50)	CCC(N)[C@]1(c2ccc(F)cc2F)CC[C@H](Oc2cc3cc[nH]c(=O)c3cc2Cl)CC1 (stereo partly drawn) [Example 56, cis-6-[4-(1-Amino-propyl)-4-(2,4-difluoro-phenyl)-cyclohexyloxy]-7-chloro-2H-isoquinolin-1-one]
10 to 100 nM	>100	>10	–	CCCC(C)(N)C1CCC(Oc2cc3cc[nH]c(=O)c3cc2Cl)CC1 (single isomer, unassigned) [Example 121, 6-{4-[1-Amino-1-n-propyl-ethyl]-cyclohexyloxy}-7-chloro-2H-isoquinolin-1-one]
–	>10	>10	+++++ (6.0≦pIC50<7.0)	CCC(N)[C@]1(c2ccccc2)CC[C@H](Oc2c(F)cc3c(=O)[nH]ccc3c2C)CC1 (stereo partly drawn) [Example 88, cis-6-[4-(1-Amino-propyl)-4-phenyl-cyclohexyloxy]-7-fluoro-5-methyl-2H-isoquinolin-1-one]
–	>300	>100	++++++ (7.0≦pIC50<8.0)	CC(N)C[C@]1(c2ccc(F)cc2)CC[C@H](Oc2cc3cc[nH]c(=O)c3cc2Cl)CC1 (stereo partly drawn) [Example 109, cis-6-[4-(2-Amino-propyl)-4-(4-fluoro-phenyl)-cyclohexyloxy]-7-chloro-2H-isoquinolin-1-one]
–	>100	>10	+++++ (6.0≦pIC50<7.0)	CCC(N)[C@]1(c2cccc(OC(F)(F)F)c2)CC[C@H](Oc2cc3cc[nH]c(=O)c3cc2Cl)CC1 (stereo partly drawn) [Example 84, cis-6-[4-(1-Amino-propyl)-4-(3-trifluoromethoxy-phenyl)-cyclohexyloxy]-7-chloro-2H-iso quinolin-1-one]

From US8541449B2, “Substituted isoquinolines and isoquinolinones as Rho kinase inhibitors” (Sanofi, priority 2008, dated 2013)
